TGI and GI50 data for 24 compounds are collected here from PubChem BioAssay (NCI).

Several values for one entry are separate records, joined by “and”; a condition that tells them apart may be missing. Equal values may be shown once.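 1) Cells in 96-well plates. 2) Compound, 48 h, 5 concentrations. 3) Linear interpolation between surrounding doses. 4) Unreached endpoint = highest concentration. GI50 = concentration required for 50% inhibition of growth. At the TGI there is no net growth.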 A value given as a limit tells only on which side of the number the result lay.

In general, TGI refers to the concentration giving total growth inhibition. A word on the GI50: it is the concentration that inhibits growth by half.

Test systems include HOP-62 NSCLC; CCRF-CEM leukemia; UO-31 renal; SK-MEL-5 melanoma; SF-539 CNS; HCT-116 colon; PC-3 prostate; A498 renal; NCI-H522 lung; NCI/ADR-RES ovarian.
Common to all, as to test: DTP human tumour cell line panel, 48 h

As for `CCOC(=O)C1CC(O)C(=O)N1C` (stereo not drawn), the concentration for total growth inhibition (TGI) in the experiment on HOP-62 NSCLC, in the experiment with CCRF-CEM leukemia, with UO-31 renal, in the experiment on SK-MEL-5 melanoma, in the experiment on SF-539 CNS and with HCT-116 colon was over 100 µM each time. For the same compound, in the experiment with PC-3 prostate, the TGI was over 100 µM.
For `COC1C=CC23c4cc5c(cc4C(O)OC2CN(C)C3C1)OCO5` (stereo not drawn), the concentration for total growth inhibition (TGI) in the experiment with A498 renal was found to be 9.89 µM; in the experiment on HOP-62 NSCLC it was 17.9 µM; in the experiment with CCRF-CEM leukemia, 7.21 µM; with UO-31 renal, 9.3 µM; in the experiment with SK-MEL-5 melanoma, 1.65 µM; with SF-539 CNS, 3.65 µM. In addition, the TGI in the experiment on HCT-116 colon was found to be 10.1 µM; in the experiment with NCI-H522 lung, 7 µM.
In the case of `CC1CC(C#N)=C2NCCCCN2C1=O` (stereo not drawn), the total growth inhibition concentration (TGI) with HOP-62 NSCLC, in the experiment with CCRF-CEM leukemia, with UO-31 renal, with SK-MEL-5 melanoma, with SF-539 CNS and with NCI-H522 lung was over 100 µM throughout. The TGI in the experiment with PC-3 prostate and in the experiment on NCI/ADR-RES ovarian was over 100 µM throughout.
As to `COC(c1ccc(C(C)(C)C)cc1)(c1ccc(C(C)(C)C)cc1)c1cc(C(O)(c2cc(C(OC)(c3ccc(C(C)(C)C)cc3)c3ccc(C(C)(C)C)cc3)c(C)cc2C)c2cc(C(OC)(c3ccc(C(C)(C)C)cc3)c3ccc(C(C)(C)C)cc3)c(C)cc2C)c(C)cc1C`, the TGI in the experiment on A498 renal, in the experiment with HOP-62 NSCLC, with CCRF-CEM leukemia, with UO-31 renal, in the experiment with SK-MEL-5 melanoma and in the experiment with SF-539 CNS was over 100 µM each time. In addition, the TGI in the experiment with HCT-116 colon, in the experiment with PC-3 prostate and with NCI/ADR-RES ovarian was over 100 µM in each case.
Turning to `C/C(=N/NC(=S)Nc1cccc(C)c1)c1ccccn1`, the TGI was determined as 3.54 µM in the experiment on A498 renal; 4.98 µM with HOP-62 NSCLC; 6 µM with UO-31 renal; 1.6 µM with SK-MEL-5 melanoma; 5.62 µM in the experiment with SF-539 CNS; 3.11 µM with HCT-116 colon. Besides, the TGI was 7.23 µM in the experiment with NCI-H522 lung, 7.68 µM with PC-3 prostate and 0.444 µM with NCI/ADR-RES ovarian.
As for `CCN(CC)CCCn1c(=O)c2cccnc2n2c3c(=O)n(C)c(=O)n(C)c3nc12`, the TGI in the experiment on HOP-62 NSCLC, with CCRF-CEM leukemia, in the experiment on UO-31 renal, with SK-MEL-5 melanoma, with SF-539 CNS and in the experiment on HCT-116 colon was over 100 µM throughout. In addition, the TGI in the experiment with NCI-H522 lung, with PC-3 prostate and with NCI/ADR-RES ovarian was over 100 µM in each case.
For `O=C1/C(=C/c2ccc(Br)s2)NC(=S)N1CN1CCOCC1`, the TGI in the experiment with A498 renal, in the experiment with HOP-62 NSCLC, in the experiment with UO-31 renal, in the experiment with SK-MEL-5 melanoma, with HCT-116 colon and in the experiment on NCI-H522 lung was over 100 µM each time. Moreover, the TGI in the experiment on PC-3 prostate and with NCI/ADR-RES ovarian was over 100 µM throughout.
`OCc1ccccc1C1CSCSC1`: the TGI in the experiment on CCRF-CEM leukemia, in the experiment on UO-31 renal, with SK-MEL-5 melanoma, with SF-539 CNS, with HCT-116 colon and in the experiment with NCI-H522 lung was over 100 µM each time.
As to `Cc1cc2cccc(Cl)c2nc1C(=O)c1ccccc1`, the TGI in the experiment on HOP-62 NSCLC, with UO-31 renal, in the experiment with SK-MEL-5 melanoma, with SF-539 CNS, in the experiment with HCT-116 colon and in the experiment with NCI-H522 lung was over 100 µM in each case.
With `CC(C)=CC1C(C(=O)O)C1(C)C` (stereo not drawn), the TGI was over 34.8 µM with A498 renal; over 750 µM in the experiment on HOP-62 NSCLC; over 750 µM in the experiment with CCRF-CEM leukemia; over 750 µM with UO-31 renal; over 750 µM in the experiment with SK-MEL-5 melanoma; over 750 µM in the experiment on SF-539 CNS. Besides, the TGI with HCT-116 colon, in the experiment on NCI-H522 lung and with NCI/ADR-RES ovarian was over 750 µM in each case.
With `N#CC(C#N)=C1CCCS(=O)(=O)c2ccccc21`, the concentration for total growth inhibition (TGI) in the experiment on A498 renal, in the experiment on HOP-62 NSCLC, in the experiment with CCRF-CEM leukemia, with UO-31 renal, in the experiment on SF-539 CNS and in the experiment on HCT-116 colon was over 100 µM each time. In addition, the TGI in the experiment with PC-3 prostate and in the experiment with NCI/ADR-RES ovarian was over 100 µM in each case.
As to `CCOc1ccc(N=C/C=C(\Cl)c2ccc3ccccc3c2)cc1`, the total growth inhibition concentration (TGI) in the experiment with A498 renal is over 94.5 µM; with HOP-62 NSCLC, 29.8 µM; in the experiment with UO-31 renal, 29.9 µM; in the experiment on SK-MEL-5 melanoma, 31 µM; in the experiment with SF-539 CNS it was 39 µM; in the experiment on HCT-116 colon it was 21.6 µM. The TGI was determined as 52.1 µM with NCI-H522 lung, 36 µM in the experiment with PC-3 prostate and 31.8 µM in the experiment on NCI/ADR-RES ovarian.
As for `CC(=O)Nc1ccc(Cl)c(Cl)c1`, the TGI with HOP-62 NSCLC, in the experiment with CCRF-CEM leukemia, in the experiment on UO-31 renal, with SF-539 CNS, in the experiment with HCT-116 colon and in the experiment on NCI-H522 lung was over 100 µM each time.
On to `COC(=O)C1CC(C=[N+](C)C)=C(SC)N1` (stereo not drawn), for which the TGI with A498 renal, in the experiment with HOP-62 NSCLC, in the experiment with UO-31 renal, in the experiment on SK-MEL-5 melanoma, with HCT-116 colon and in the experiment on NCI-H522 lung was over 100 µM in each case. The concentration for total growth inhibition (TGI) in the experiment on PC-3 prostate and in the experiment on NCI/ADR-RES ovarian was over 100 µM each time.
For `O=C1C(Cl)N(c2ccccc2)C1c1c[nH]c2ccccc12` (stereo not drawn), the TGI in the experiment with HOP-62 NSCLC, in the experiment with CCRF-CEM leukemia, with UO-31 renal, with SK-MEL-5 melanoma, in the experiment with SF-539 CNS and in the experiment with HCT-116 colon was over 100 µM each time. This compound had a TGI in the experiment with NCI-H522 lung of over 100 µM.
Consider `CO/N=C1/c2sccc2[C@H](NC(=O)CNC(=O)OC(C)(C)C)[C@@H]1O`, for which the TGI in the experiment with A498 renal, in the experiment with HOP-62 NSCLC, with CCRF-CEM leukemia, with UO-31 renal, in the experiment with SK-MEL-5 melanoma and in the experiment with SF-539 CNS was over 100 µM throughout. For the same compound, the TGI in the experiment on HCT-116 colon, with PC-3 prostate and in the experiment with NCI/ADR-RES ovarian was over 100 µM in each case.
For the compound `O=C(OCc1ccccc1)OOC(=O)OCc1ccccc1`, the TGI with A498 renal, with HOP-62 NSCLC, in the experiment with CCRF-CEM leukemia, with UO-31 renal, in the experiment on SK-MEL-5 melanoma and in the experiment with SF-539 CNS was over 100 µM throughout. Besides, the TGI in the experiment on HCT-116 colon and in the experiment on NCI-H522 lung was over 100 µM each time.
With `Cc1nc2ccc([N+](=O)[O-])cc2c(=O)n1C(=S)Nc1cccc(Cl)c1`, the TGI with A498 renal was determined as 45.9 µM; with HOP-62 NSCLC, 44.6 µM; in the experiment with CCRF-CEM leukemia, 62.3 µM; in the experiment on UO-31 renal, 21.5 µM; in the experiment with SK-MEL-5 melanoma, 28.9 µM; in the experiment on SF-539 CNS, 43.1 µM. The TGI worked out at 36.9 µM in the experiment with HCT-116 colon, 54.1 µM in the experiment with PC-3 prostate and 89.7 µM in the experiment on NCI/ADR-RES ovarian.
Consider `COc1ccc(CNc2nc3ccc(C(F)(F)F)cc3nc2-c2ccccc2)cc1OC`, for which the total growth inhibition concentration (TGI) in the experiment on HOP-62 NSCLC, in the experiment on CCRF-CEM leukemia, with UO-31 renal, in the experiment on SF-539 CNS and in the experiment on HCT-116 colon was over 100 µM each time.
Take `c1ccc(N=c2snc(-c3ccccc3)s2)cc1`: the TGI in the experiment on A498 renal, in the experiment with HOP-62 NSCLC, with CCRF-CEM leukemia, in the experiment with UO-31 renal, with SK-MEL-5 melanoma and in the experiment with SF-539 CNS was over 100 µM throughout. Moreover, the concentration for total growth inhibition (TGI) in the experiment on HCT-116 colon and in the experiment on NCI-H522 lung was over 100 µM throughout.
On to `CC(C)CCNC(=O)c1ccc(CNC(=O)/C=C/c2ccc(OCc3ccccc3)cc2)cc1`, for which the TGI in the experiment on A498 renal, in the experiment with HOP-62 NSCLC, in the experiment on CCRF-CEM leukemia, in the experiment on UO-31 renal, with SK-MEL-5 melanoma and in the experiment with HCT-116 colon was over 100 µM each time. For the same compound, the TGI in the experiment with PC-3 prostate and in the experiment on NCI/ADR-RES ovarian was over 100 µM each time.
In the case of `O=C1/C(=C/c2ccc(F)cc2)CNC/C1=C\c1ccc(F)cc1`, the TGI with A498 renal was 4.33 µM; in the experiment on HOP-62 NSCLC it was 4.56 µM; in the experiment on CCRF-CEM leukemia it was over 100 µM; in the experiment on UO-31 renal, 3.3 µM; in the experiment on SK-MEL-5 melanoma, 3.02 µM; in the experiment on SF-539 CNS, 2.39 µM. For the same compound, the TGI with HCT-116 colon was 0.915 µM; in the experiment on NCI-H522 lung it was 3.26 µM; in the experiment on PC-3 prostate, 4.41 µM.
In the case of `COc1cc([C@@H]2c3cc4c(cc3C[C@H]3COC(=O)[C@@H]32)OCO4)cc(OC)c1OC`, the GI50 in the experiment with A498 renal was 0.0023 µM; in the experiment with HOP-62 NSCLC it was 0.00577 µM; in the experiment on CCRF-CEM leukemia it was 0.00386 µM; in the experiment on UO-31 renal, 0.00501 µM; in the experiment with SK-MEL-5 melanoma it was 0.00397 µM; in the experiment with SF-539 CNS it was 0.00279 µM and 0.0062 µM. In addition, the GI50 in the experiment on HCT-116 colon was 0.0026 µM and 0.00848 µM; in the experiment on NCI-H522 lung, 0.003 µM and 0.00924 µM; in the experiment with NCI/ADR-RES ovarian it was 0.00917 µM. The TGI with A498 renal was 0.00969 µM and 0.0642 µM; in the experiment with HOP-62 NSCLC, 40.5 µM; in the experiment with CCRF-CEM leukemia, 21.1 µM; in the experiment with UO-31 renal, 13.2 µM; in the experiment with SK-MEL-5 melanoma, over 7.93 µM; in the experiment on SF-539 CNS, 0.00812 µM. Moreover, the total growth inhibition concentration (TGI) in the experiment on NCI-H522 lung is 0.00689 µM; in the experiment with NCI/ADR-RES ovarian it was 0.202 µM.
As to `CC(C)(CO)N1C(=O)c2ccccc2C1(O)c1ccc(Cl)cc1` (stereo not drawn), the TGI in the experiment on HOP-62 NSCLC, in the experiment with CCRF-CEM leukemia, with UO-31 renal, in the experiment with SK-MEL-5 melanoma, in the experiment with HCT-116 colon and in the experiment on NCI-H522 lung was over 100 µM each time. The TGI in the experiment on PC-3 prostate and in the experiment with NCI/ADR-RES ovarian was over 100 µM throughout.
